The subject of data set [1] is CCL4 production by LPS-stimulated splenic monocytes. The experiment in a line: Cytokine assay: LPS-stimulated CCL4 production by splenic monocytes. It counts as cell-based, mouse. Conditions: absence of ADA, single agents.
The subject of data set [2] is CCL3 production by LPS-stimulated splenic monocytes. The experiment in a line: Cytokine assay: LPS-stimulated CCL3 production by splenic monocytes. It counts as cell-based, mouse. Conditions: A2AR intact and deficient monocytes, absence of ADA.
The conditions of data set [3]: cited from earlier work.
Data set [4] deals with T1, human A2AR (Homo sapiens, UniProt P29274). In words: Cell-based cAMP assay in CHO-hA2AR cells. Conditions: 10 min. (Changes in cAMP serve as a functional read-out for many G protein-coupled receptors.)
T1 sequence (P29274 whole entry): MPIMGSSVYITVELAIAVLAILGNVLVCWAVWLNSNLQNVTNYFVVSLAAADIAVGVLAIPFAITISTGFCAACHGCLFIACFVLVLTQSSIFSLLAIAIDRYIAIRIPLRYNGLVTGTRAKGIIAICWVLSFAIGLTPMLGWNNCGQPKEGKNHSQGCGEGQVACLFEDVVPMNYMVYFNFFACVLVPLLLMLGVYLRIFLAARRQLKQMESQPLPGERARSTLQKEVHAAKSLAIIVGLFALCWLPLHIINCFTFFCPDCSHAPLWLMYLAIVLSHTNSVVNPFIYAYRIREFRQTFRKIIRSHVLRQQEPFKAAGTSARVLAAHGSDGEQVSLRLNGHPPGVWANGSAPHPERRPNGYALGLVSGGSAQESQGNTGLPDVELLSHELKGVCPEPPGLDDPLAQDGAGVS
Data set [5] relates to TNF-α production by LPS-stimulated splenic monocytes. In words: Cytokine assay: LPS-stimulated TNF-α production by splenic monocytes. Format: cell-based, mouse. Conditions: for inhibition at 30 µM / inhibition at 100 µM: Mus musculus, Monocyte, 4 h; for inhibition of TNF-α production: CGS 21680 alone.
Data set [6] deals with T1, human A2AR. In words: ERK1/2 phosphorylation assay in CHO-hA2AR cells. Conditions: inosine 1000 μM, AEA061 10 μM, 10 min.
In another data set the target is hA2AR (Homo sapiens, UniProt P29274). In words: Cell-free membrane-based cAMP assay. It counts as biochemical. Conditions: HEK293-hA2AR cytosol-free membrane preparations, ADA 3 U/ml, 30 min, NBMPR 0–300 μM.
Chain of hA2AR (P29274 whole entry): as above

Where a name gives a salt, the structure may show the parent alone. Read-outs that look alike come from different tables or passages of the source.

One may read the half-life as the time in which the quantity being followed falls by half. As to `OC[C@H]1O[C@@H](n2cnc3c(O)ncnc32)[C@H](O)[C@@H]1O` [inosine], the “inhibition of CCL4 production” value in data set [1] was “individually inhibited CCL4 production”. In addition, the “inhibition of CCL3 production” value in data set [2] is given as “closely resembles that of TNF-α”. Besides, the half-life in data set [3] is on record as 15 h. Moreover, the cAMP production result on human A2AR [4] (in the presence of ADA 3 U/ml) is “increased cAMP production”. Besides, the “inhibition of TNF-α production as single agent” value in data set [5] (LPS-stimulated A2AR intact monocytes, absence of ADA) was “dose-dependently inhibited TNF-α production”. Further, the inhibition at 30 µM amounted to 5.2 ± 1.3% in data set [5] (read-out: inhibition of LPS-stimulated TNF-α production, A2AR deficient monocytes, absence of ADA, 30 μM, 4 h); 5.2 ± 2.2% in data set [5] (read-out: inhibition of LPS-stimulated TNF-α production, A2AR deficient monocytes, presence of ADA 3 U/ml, 30 μM, 4 h); 18.6 ± 3.7% in data set [5] (read-out: inhibition of LPS-stimulated TNF-α production, A2AR intact monocytes, absence of ADA, 30 μM, 4 h); 13.2 ± 1.9% in data set [5] (read-out: inhibition of LPS-stimulated TNF-α production, A2AR intact monocytes, presence of ADA 3 U/ml, 30 μM, 4 h). Besides, the inhibition at 100 µM came out at 16.3 ± 0.7% in data set [5] (read-out: inhibition of LPS-stimulated TNF-α production, A2AR deficient monocytes, absence of ADA, 100 μM, 4 h); 12.4 ± 1.2% in data set [5] (read-out: inhibition of LPS-stimulated TNF-α production, A2AR deficient monocytes, presence of ADA 3 U/ml, 100 μM, 4 h); 30.1 ± 1.3% in data set [5] (read-out: inhibition of LPS-stimulated TNF-α production, A2AR intact monocytes, absence of ADA, 100 μM, 4 h); 16.8 ± 1.6% in data set [5] (read-out: inhibition of LPS-stimulated TNF-α production, A2AR intact monocytes, presence of ADA 3 U/ml, 100 μM, 4 h). The ERK1/2 phosphorylation result at human A2AR [6] is given as “increased ERK1/2 phosphorylation”.

Regarding `O=[N+]([O-])c1ccc(CSc2ncnc3c2ncn3[C@@H]2O[C@H](CO)[C@@H](O)[C@H]2O)cc1` [NBMPR, 6-S-[(4-Nitrophenyl)methyl]-6-thioinosine], the figures for the cAMP production result at human A2AR [4] (without ADA) and at hA2AR were “activated A2AR-mediated cAMP production” and “dose-dependently increased cAMP production”, respectively.

For `CCNC(=O)[C@H]1O[C@@H](n2cnc3c(N)nc(NCCc4ccc(CCC(=O)O)cc4)nc32)[C@H](O)[C@@H]1O` [CGS 21680, 4-[2-[[6-Amino-9-(N-ethyl-β-D-ribofuranuronamidosyl)-9H-purin-2-yl]amino]ethyl] benzenepropanoic acid hydrochloride], the “inhibition of TNF-α production” value in data set [5] (LPS-stimulated A2AR deficient monocytes, absence of ADA) is reported as 6.7%; in data set [5] (LPS-stimulated A2AR-intact monocytes, absence of ADA), 39%.

Values taken from PMC5732040 (Cellular signalling, 2017).
